Results as given in patent US4213999A, “Inhibition of lipogenesis” (Shell Oil Company, priority 1979, dated 1980).

Tested on: lipogenesis in swine adipose tissue
Experiment: Inhibition of lipogenesis (lipid synthesis from glucose-U^14 C) in swine adipose tissue slices
Format: cell-based
Conditions: Sus scrofa, 100 micrograms per milliliter of incubation mixture, 37° C., 2 hours, 300 microunits of insulin, 5% DMSO, triplicate, read-out: Percent Inhibition of lipogenesis (lipid synthesis) compared to control tests
From the text: The manner in which they cause this effect is not known with certainty; it is believed that they interfere with the synthesis of fatty acids in the tissues. Their effectiveness for this purpose has been ascertained by immersing samples of swine adipose tissue in a liquid medium containing radioactive glucose and the test chemical for a period of time, then isolating the lipid from the treated tissue and determining the uptake of the radioactive carbon by means of scintillation counting techniques. These tests were conducted in swine adipose tissue because in swine, the primary site of lipogenesis--i.e., fatty acid synthesis--appears to be adipose tissue.
Described in more detail, the tests were conducted according to the following general procedure:
150 milligrams of slices of swine adipose tissue were incubated at 37° C. for 2 hours with shaking in 3 milliliters of Krebs-Ringer bicarbonate solution containing one-half of the normal calcium ion concentration, 60 micromoles of glucose, 0.5 micro-Curie of glucose-U^14 C, and 300 microunits of insulin, and 5% dimethyl sulfoxide (DMSO). The test compound was added as a solution or suspension in DMSO and was present as a concentration of 100 micrograms per milliliter of incubation mixture.
The incubation was terminated by addition of 0.25 milliliter of 1 N sulfuric acid. The resulting mixture was extracted with a total of 25 milliliters of chloroform:methanol (2:1, v/v). The extracts were washed according to Folch et al. (J. Biol. Chem., 226, 497-509, (1957)), air dried, and counted in a liquid scintillation counter with 15 milliliters of counting fluid (two parts toluene containing 0.4% w/v New England Nuclear Omnifluor: 1 part Triton X-100). The tests were conducted in triplicate and were accompanied by control tests in which all ingredients,proportions and conditions were the same except that no test compound was included. From the data obtained were calculated the percent inhibition of lipid synthesis by the test compound. The data obtained are reported as the percent inhibition of lipogenesis compared to the results obtained in the control tests wherein only the test compound was omitted.

## CCOC(=O)c1cc2cc(C(=O)c3ccccc3)ccc2o1 [Compound 3]
  inhibition at 100 µg/mL: 47%

## CCOC(=O)c1cc2cc(-c3ccc(C(C)O)cc3)ccc2o1 (stereo not drawn) [Compound 7, Ethyl 5-(4-(1-hydroxyethyl)phenyl)benzofuran-2-carboxylate]
  inhibition at 100 µg/mL: 71%

## COC(=O)C1Cc2cc(-c3ccc(C(C)O)cc3)ccc2O1 (stereo not drawn) [Compound 14]
  inhibition at 100 µg/mL: 85%

## CCOC(=O)c1cc2cc(-c3ccc(NC(C)=O)cc3)ccc2o1 [Compound 8]
  inhibition at 100 µg/mL: 52%

## CCOC(=O)C1Cc2c(Oc3ccccc3)cccc2O1 (stereo not drawn) [Compound 13]
  inhibition at 100 µg/mL: 20%

## CCOC(=O)C1Cc2cc(C3CCCCC3)ccc2O1 (stereo not drawn) [Compound 16]
  inhibition at 100 µg/mL: 21%

## CCOC(=O)c1cc2cc(-c3ccc(C(C)=O)cc3)ccc2o1 [Compound 5, Ethyl 5-(4-acetylphenyl)benzofuran-2-carboxylate]
  inhibition at 100 µg/mL: 24%

## CCOC(=O)C1Cc2cc(-c3ccc(NC(C)=O)cc3)ccc2O1 (stereo not drawn) [Compound 15]
  inhibition at 100 µg/mL: 88%

## CCOC(=O)c1cc2cc(Cc3ccccc3)ccc2o1 [Compound 1, Ethyl 5-benzylbenzofuran-2-carboxylate]
  inhibition at 100 µg/mL: 45%

## CCOC(=O)c1cc2cc(-c3ccc(N)cc3)ccc2o1 [Compound 9, Ethyl 5-(4-aminophenyl)benzofuran-2-carboxylate]
  inhibition at 100 µg/mL: 45%

## CCOC(=O)c1cc2cc(-c3ccc(OC(C)=O)cc3)ccc2o1 [Compound 6, Ethyl 5-(4-acetyloxyphenyl)benzofuran-2-carboxylate]
  inhibition at 100 µg/mL: 56%

## CCOC(=O)c1cc2c(Oc3ccccc3)cccc2o1 [Compound 4, Ethyl 4-phenoxybenzofuran-2-carboxylate]
  inhibition at 100 µg/mL: 28%

## CCOC(=O)C1Cc2cc(Cc3ccccc3)ccc2O1 (stereo not drawn) [Compound 11]
  inhibition at 100 µg/mL: 40%

## CCOC(=O)C1Cc2ccc(Oc3ccccc3)cc2O1 (stereo not drawn) [Compound 17]
  inhibition at 100 µg/mL: 29%

## CCOC(=O)C1Cc2cc(-c3ccccc3)ccc2O1 (stereo not drawn) [Compound 10, Ethyl 2,3-dihydro-5-phenylbenzofuran-2-carboxylate]
  inhibition at 100 µg/mL: 21%

## CCCCCCOc1ccc2oc(C(=O)OCC)cc2c1 [Compound 2]
  inhibition at 100 µg/mL: 23%

## C=CCOC(=O)C1Cc2cc(Cc3ccccc3)ccc2O1 (stereo not drawn) [Compound 12]
  inhibition at 100 µg/mL: 36%

## CCOC(=O)C1Cc2cc(-c3ccc(Cl)cc3)ccc2O1 (stereo not drawn) [Compound 18, Ethyl 2,3-dihydro-5-(4-chlorophenyl)benzofuran-2-carboxylate]
  inhibition at 100 µg/mL: 28%
